Assay results from patent publication US20240368135A1 (VERTEX PHARMACEUTICALS INCORPORATED, priority 2021, published 2024).

These molecules were tested against human NaV 1.8 (Homo sapiens, UniProt Q9Y5Y9) (assay: E-VIPR assay detecting and measuring NaV inhibition properties). Conditions: HEK cells expressing truncated human NaV 1.8; in the presence of human serum (compound numbers followed by *); read-out: IC50 in the E-VIPR Assay, performed in the presence of human serum.
Format: cell-based
How it was run: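 Membrane potential was followed by coumarin/oxonol FRET during electrical field stimulation of matrigel-seeded HEK cells carrying truncated human NaV1.8 plus KIR2.1. Dosing used 11 points, 3-fold steps, top 300 nM final, 0.625% DMSO, with or without 25% human serum.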

Chain of human NaV 1.8 (Q9Y5Y9 126-399 limits assumed): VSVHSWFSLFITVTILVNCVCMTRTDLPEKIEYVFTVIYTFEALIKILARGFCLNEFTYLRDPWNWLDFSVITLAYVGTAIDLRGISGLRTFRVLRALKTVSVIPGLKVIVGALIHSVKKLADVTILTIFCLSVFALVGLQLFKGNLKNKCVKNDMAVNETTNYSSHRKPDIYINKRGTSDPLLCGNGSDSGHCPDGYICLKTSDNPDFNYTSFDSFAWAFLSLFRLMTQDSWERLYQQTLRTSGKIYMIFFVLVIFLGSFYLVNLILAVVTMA
Chain of human NaV 1.8 (Q9Y5Y9 660-890 limits assumed): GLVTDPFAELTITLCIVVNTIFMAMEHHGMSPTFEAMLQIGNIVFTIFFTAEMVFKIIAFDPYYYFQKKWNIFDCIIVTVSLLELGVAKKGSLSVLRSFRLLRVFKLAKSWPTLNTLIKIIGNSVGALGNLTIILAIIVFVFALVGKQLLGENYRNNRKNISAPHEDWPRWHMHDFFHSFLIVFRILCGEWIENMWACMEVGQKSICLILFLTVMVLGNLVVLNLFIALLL
Chain of human NaV 1.8 (Q9Y5Y9 1148-1722 limits assumed): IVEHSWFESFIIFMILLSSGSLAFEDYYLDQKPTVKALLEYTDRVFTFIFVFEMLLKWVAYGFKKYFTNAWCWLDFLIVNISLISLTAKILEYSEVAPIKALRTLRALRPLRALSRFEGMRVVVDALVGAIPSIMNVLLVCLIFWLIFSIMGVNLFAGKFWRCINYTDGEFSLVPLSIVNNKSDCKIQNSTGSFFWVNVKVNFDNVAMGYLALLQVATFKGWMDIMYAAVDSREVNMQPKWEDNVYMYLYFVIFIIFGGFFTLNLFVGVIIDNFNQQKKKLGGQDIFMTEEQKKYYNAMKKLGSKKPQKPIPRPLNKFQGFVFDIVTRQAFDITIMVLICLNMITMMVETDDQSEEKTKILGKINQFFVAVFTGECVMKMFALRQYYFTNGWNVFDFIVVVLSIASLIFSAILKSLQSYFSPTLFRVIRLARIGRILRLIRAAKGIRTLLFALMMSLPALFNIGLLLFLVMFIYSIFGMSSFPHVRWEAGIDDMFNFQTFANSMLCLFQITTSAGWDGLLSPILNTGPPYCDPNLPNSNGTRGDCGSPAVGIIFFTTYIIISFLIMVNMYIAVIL

First: CNCc1cc(NC(=O)[C@@H]2O[C@@](C)(C(F)(F)F)[C@@H](C)[C@H]2c2ccc(F)c(F)c2OC)c(F)cn1 (single isomer, unassigned) [Compound 13, 3-(3,4-difluoro-2-methoxy-phenyl)-N-[5-fluoro-2-(methylaminomethyl)-4-pyridyl]-4,5-dimethyl-5-(trifluoromethyl)tetrahydrofuran-2-carboxamide]
Second: COc1c([C@H]2[C@H](C(=O)Nc3ccc4ncn(C)c4c3)O[C@@](C)(C(F)(F)F)[C@H]2C)ccc(F)c1F [Compound 185, (2R,3S,4S,5R)-3-(3,4-difluoro-2-methoxyphenyl)-4,5-dimethyl-N-(1-methyl-1H-benzo[d]imidazol-6-yl)-5-(trifluoromethyl)tetrahydrofuran-2-carboxamide]
The IC50 of the first is lower: 10 to 100 nM for the first, at least 1000 nM for the second. The first is the more potent here.

Same assay, conditions: HEK cells expressing truncated human NaV 1.8; no human serum; read-out: IC50 in the E-VIPR Assay

First: COc1c([C@H]2[C@H](C(=O)Nc3cnc(CCO)n3C)O[C@@](C)(C(F)(F)F)[C@H]2C)ccc(F)c1F [Compound 445, (2R,3S,4S,5R)-3-(3,4-difluoro-2-methoxyphenyl)-N-(2-(2-hydroxyethyl)-1-methyl-1H-imidazol-5-yl)-4,5-dimethyl-5-(trifluoromethyl)tetrahydrofuran-2-carboxamide]
Second: COc1c([C@H]2[C@H](C(=O)Nc3cc(CO)nn3C)O[C@@](C)(C(F)(F)F)[C@H]2C)ccc(F)c1F [Compound 20, (2R,3S,4S,5R)-3-(3,4-difluoro-2-methoxy-phenyl)-N-[5-(hydroxymethyl)-2-methyl-pyrazol-3-yl]-4,5-dimethyl-5-(trifluoromethyl)tetrahydrofuran-2-carboxamide]
The IC50 of the first is higher: at least 1000 nM for the first, 10 to 100 nM for the second.

First: C[C@H]1[C@@H](c2ccc(F)c(F)c2OCCO)[C@H](C(=O)Nc2cnn(C)c(=O)c2)O[C@@]1(C)C(F)(F)F [Compound 568, (2R,3S,4S,5R)-3-(3,4-difluoro-2-(2-hydroxyethoxy)phenyl)-4,5-dimethyl-N-(1-methyl-6-oxo-1,6-dihydropyridazin-4-yl)-5-(trifluoromethyl)tetrahydrofuran-2-carboxamide]
Second: C[C@H]1[C@@H](c2ccc(F)c(F)c2OCCO)[C@H](C(=O)Nc2cnnn2C)O[C@@]1(C)C(F)(F)F [Compound 573, (2R,3S,4S,5R)-3-(3,4-difluoro-2-(2-hydroxyethoxy)phenyl)-4,5-dimethyl-N-(1-methyl-1H-1,2,3-triazol-5-yl)-5-(trifluoromethyl)tetrahydrofuran-2-carboxamide]
The IC50 of the first is lower: 10 to 100 nM for the first, 100 to 1000 nM for the second. The first is the more potent here.

First: COc1c([C@H]2[C@H](C(=O)Nc3cnc4n3CCCC4)O[C@@](C)(C(F)(F)F)[C@H]2C)ccc(F)c1F [Compound 317, (2R,3S,4S,5R)-3-(3,4-difluoro-2-methoxyphenyl)-4,5-dimethyl-N-(5,6,7,8-tetrahydroimidazo[1,2-a]pyridin-3-yl)-5-(trifluoromethyl)-tetrahydrofuran-2-carboxamide]
Second: COc1c([C@H]2[C@H](C(=O)Nc3ccnc(N4CCCN(C)CC4=O)c3)O[C@@](C)(C(F)(F)F)[C@H]2C)ccc(F)c1F [Compound 467, (2R,3S,4S,5R)-3-(3,4-difluoro-2-methoxyphenyl)-4,5-dimethyl-N-(2-(4-methyl-2-oxo-1,4-diazepan-1-yl)pyridin-4-yl)-5-(trifluoromethyl)tetrahydrofuran-2-carboxamide]
The IC50 of the first is higher: 100 to 1000 nM for the first, 10 to 100 nM for the second. The second is the more potent here.

First: COc1c([C@H]2[C@H](C(=O)Nc3cc(C4CN(C)CCO4)ncc3F)O[C@@](C)(C(F)(F)F)[C@H]2C)ccc(F)c1F (single isomer, unassigned) [Compound 366, rel-(2R*,3S*,4S*,5R*)-3-(3,4-difluoro-2-methoxyphenyl)-N-(5-fluoro-2-(4-methylmorpholin-2-yl)pyridin-4-yl)-4,5-dimethyl-5-(trifluoromethyl)tetrahydrofuran-2-carboxamide]
Second: COc1c([C@H]2[C@H](C(=O)Nc3ccc(CC4CCOC4)nc3)O[C@@](C)(C(F)(F)F)[C@H]2C)ccc(F)c1F (stereo partly drawn) [Compound 392, (2R,3S,4S,5R)-3-(3,4-difluoro-2-methoxyphenyl)-4,5-dimethyl-N-(6-((tetrahydrofuran-3-yl)methyl)pyridin-3-yl)-5-(trifluoromethyl)-tetrahydrofuran-2-carboxamide]
The IC50 of the first is lower: under 10 nM for the first, 100 to 1000 nM for the second. The first is the more potent here.

`C[C@H]1[C@@H](c2ccc(F)c(F)c2OCCN2C[C@H]3COC[C@H]3C2)[C@H](C(=O)Nc2cc(C(N)=O)nn2C)O[C@@]1(C)C(F)(F)F` [Compound 597, 5-[[(2R,3S,4S,5R)-3-[2-[2-[(3aS,6aR)-1,3,3a,4,6,6a-hexahydrofuro[3,4-c]pyrrol-5-yl]ethoxy]-3,4-difluoro-phenyl]-4,5-dimethyl-5-(trifluoromethyl)tetrahydrofuran-2-carbonyl]amino]-1-methyl-pyrazole-3-carboxamide] and `Cc1nocc1NC(=O)[C@@H]1O[C@@](C)(C(F)(F)F)[C@@H](C)[C@H]1c1ccc(F)c(F)c1OCCN1CC(OC(F)F)C1` [Compound 628, (2R,3S,4S,5R)-3-(2-(2-(3-(difluoromethoxy)azetidin-1-yl)ethoxy)-3,4-difluorophenyl)-4,5-dimethyl-N-(3-methylisoxazol-4-yl)-5-(trifluoromethyl)tetrahydrofuran-2-carboxamide] fall in the same range of IC50: 10 to 100 nM for the first, 10 to 100 nM for the second.

Compared with `CC(C)Oc1c(C2C(C(=O)Nc3cc(S(C)(=O)=O)ccn3)OC(C)(C(F)(F)F)C2C)ccc(F)c1F` (stereo not shown) [Compound 116, 3-(3,4-difluoro-2-isopropoxy-phenyl)-4,5-dimethyl-N-(4-methylsulfonyl-2-pyridyl)-5-(trifluoromethyl)tetrahydrofuran-2-carboxamide], `COc1c([C@H]2[C@H](C(=O)Nc3ccnc(C(CO)N(C)C)c3)O[C@@](C)(C(F)(F)F)[C@H]2C)ccc(F)c1F` (single isomer, unassigned) [Compound 368] is lower in IC50: 100 to 1000 nM for the first, under 10 nM for the second.

Compared with `COCCOc1cc(NC(=O)C2OC(C)(C(F)(F)F)C(C)C2c2ccc(F)c(F)c2OC)cnn1` (single isomer, unassigned) [Compound 33, 3-(3,4-difluoro-2-methoxy-phenyl)-N-[6-(2-methoxyethoxy)pyridazin-4-yl]-4,5-dimethyl-5-(trifluoromethyl)tetrahydrofuran-2-carboxamide], `COc1cc(NC(=O)[C@@H]2O[C@@](C)(C(F)(F)F)[C@@H](C)[C@H]2c2ccc(F)c(F)c2OCCO)ccn1` [Compound 544, (2R,3S,4S,5R)-3-(3,4-difluoro-2-(2-hydroxyethoxy)phenyl)-N-(2-methoxypyridin-4-yl)-4,5-dimethyl-5-(trifluoromethyl)tetrahydrofuran-2-carboxamide] is lower in IC50: at least 1000 nM for the first, 10 to 100 nM for the second.

First: COc1c(C2C(C(=O)Nc3ccnc(C(O)CO)c3)OC(C)(C(F)(F)F)C2C)ccc(F)c1F (single isomer, unassigned) [Compound 44, 3-(3,4-difluoro-2-methoxy-phenyl)-N-[2-(1,2-dihydroxyethyl)-4-pyridyl]-4,5-dimethyl-5-(trifluoromethyl)tetrahydrofuran-2-carboxamide]
Second: COc1c([C@H]2[C@H](C(=O)Nc3ccc(C(F)CO)nc3)O[C@@](C)(C(F)(F)F)[C@H]2C)ccc(F)c1F (single isomer, unassigned) [Compound 438, rel-(2R*,3S*,4S*,5R*)-3-(3,4-difluoro-2-methoxyphenyl)-N-(6-(1-fluoro-2-hydroxyethyl)pyridin-3-yl)-4,5-dimethyl-5-(trifluoromethyl)tetrahydrofuran-2-carboxamide]
The IC50 of the first is lower: under 10 nM for the first, 10 to 100 nM for the second.

Compared with `COc1c(C2C(C(=O)Nc3ccnc(C(=O)O)c3)OC(C)(C(F)(F)F)C2C)ccc(F)c1C(F)F` (single isomer, unassigned) [Compound 174], `COc1c([C@@H]2[C@@H](C(=O)Nc3ccc(C(=O)O)nc3)O[C@](C)(C(F)(F)F)[C@@H]2C)ccc(F)c1C(F)F` (single isomer, unassigned) [Compound 177] is higher in IC50: under 10 nM for the first, at least 1000 nM for the second. The first is the more potent here.

`C[C@H]1[C@@H](c2ccc(F)c(F)c2O[C@H]2C[C@@H](O)C2)[C@H](C(=O)Nc2cncc(F)c2)O[C@@]1(C)C(F)(F)F` [Compound 660, (2R,3S,4S,5R)-3-(3,4-difluoro-2-((1S,3R)-3-hydroxycyclobutoxy)phenyl)-N-(5-fluoropyridin-3-yl)-4,5-dimethyl-5-(trifluoromethyl)tetrahydrofuran-2-carboxamide] and `COc1c([C@H]2[C@H](C(=O)Nc3ccnc(N4C(=O)[C@@H]5C[C@H]4CN5C)c3)O[C@@](C)(C(F)(F)F)[C@H]2C)ccc(F)c1F` [Compound 489, (2R,3S,4S,5R)-3-(3,4-difluoro-2-methoxyphenyl)-4,5-dimethyl-N-(2-((1S,4S)-5-methyl-3-oxo-2,5-diazabicyclo[2.2.1]heptan-2-yl)pyridin-4-yl)-5-(trifluoromethyl)tetrahydrofuran-2-carboxamide] fall in the same range of IC50: 10 to 100 nM for the first, 10 to 100 nM for the second.

`COc1c([C@H]2[C@H](C(=O)Nc3cnnc(N4C(=O)CN(C)C[C@H]4C)c3)O[C@@](C)(C(F)(F)F)[C@H]2C)ccc(F)c1F` [Compound 384, (2R,3S,4S,5R)-3-(3,4-difluoro-2-methoxyphenyl)-N-(6-((R)-2,4-dimethyl-6-oxopiperazin-1-yl)pyridazin-4-yl)-4,5-dimethyl-5-(trifluoromethyl)tetrahydrofuran-2-carboxamide] and `COc1c([C@H]2[C@H](C(=O)Nc3ccnc(N4C[C@@H](C)NCC4=O)c3)O[C@@](C)(C(F)(F)F)[C@H]2C)ccc(F)c1F` [Compound 480, (2R,3S,4S,5R)-3-(3,4-difluoro-2-methoxyphenyl)-4,5-dimethyl-N-(2-((R)-5-methyl-2-oxopiperazin-1-yl)pyridin-4-yl)-5-(trifluoromethyl)tetrahydrofuran-2-carboxamide] cannot be ordered by IC50: under 10 nM for the first, under 10 nM for the second.

`COCc1cc(CNC(=O)[C@@H]2O[C@@](C)(C(F)(F)F)[C@@H](C)[C@H]2c2ccc(F)c(F)c2OC)n[nH]1` [Compound 288, (2R,3S,4S,5R)-3-(3,4-difluoro-2-methoxyphenyl)-N-((5-(methoxymethyl)-1H-pyrazol-3-yl)methyl)-4,5-dimethyl-5-(trifluoromethyl)tetrahydrofuran-2-carboxamide] was tested, and the IC50 was at least 1000 nM.
